Data taken from paper PMC13047053, “Crystal structure of human INPP5K with an allosteric inhibitor reveals the structural basis for species specific potency” (Scientific Reports, 2026).
Entries after “also recorded” stand apart in the source; their conditions may differ.

Molecular target: T1, rat INPP5K (Rattus norvegicus, UniProt A0A0G2K2Z2)
T1 construct: rat INPP5K (aa 1–446, UniProt ID: Q9R0B6); FLAG (N); made in house; host or cells: Expi293 cells (pcDNA3.4, transient)
T1 sequence (A0A0G2K2Z2 1-446): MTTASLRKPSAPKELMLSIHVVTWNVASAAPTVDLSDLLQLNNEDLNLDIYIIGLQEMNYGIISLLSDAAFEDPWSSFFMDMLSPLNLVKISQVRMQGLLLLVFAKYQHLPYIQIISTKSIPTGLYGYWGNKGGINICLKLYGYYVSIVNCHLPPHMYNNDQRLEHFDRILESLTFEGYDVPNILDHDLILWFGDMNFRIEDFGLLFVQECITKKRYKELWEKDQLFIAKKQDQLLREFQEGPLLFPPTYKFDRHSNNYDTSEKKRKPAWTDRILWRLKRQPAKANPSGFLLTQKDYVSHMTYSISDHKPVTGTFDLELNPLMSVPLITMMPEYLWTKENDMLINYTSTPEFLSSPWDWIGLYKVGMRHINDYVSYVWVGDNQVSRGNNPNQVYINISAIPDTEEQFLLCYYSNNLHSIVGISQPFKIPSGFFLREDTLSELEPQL
Experiment: Inorganic phosphate detection assay for phosphatase inhibition
Type: biochemical

CC(C)c1sc(NC(=O)c2ccccc2)c(C(=O)O)c1-c1ccccc1 [CPD-1]
IC50 (inorganic phosphate detection assay, 20 µM diC8-PI(3,4,5)P3, 20 min): > 100 µM | inhibition of rat INPP5K (in words) (result in words): no inhibition; also recorded: inactive
